Assay results: BindingDB's records for doi:10.1016/j.bmcl.2003.10.023 (Boehringer Ingelheim (Canada), 2003)

Experiment: Inhibitory activity against calf thymus RNA polymerase

| Structure (SMILES) | IC50 [µM] |
| --- | --- |
| O=C(O)c1ccc2c(c1)nc(-c1ncc[nH]1)n2C1CCCCC1 [1-Cyclohexyl-2-(1H-imidazol-2-yl)-1H-benzoimidazole-5-carboxylic acid] | > 500 |
| O=C(O)c1ccc2c(c1)nc(-c1ccc[nH]1)n2C1CCCCC1 [1-Cyclohexyl-2-(1H-pyrrol-2-yl)-1H-benzoimidazole-5-carboxylic acid] | > 500 |
| O=C(O)c1ccc2c(c1)nc(-c1nccs1)n2C1CCCCC1 [1-Cyclohexyl-2-thiazol-2-yl-1H-benzoimidazole-5-carboxylic acid] | > 500 |
| O=C(O)c1ccc2c(c1)nc(-c1cccs1)n2C1CCCCC1 [1-Cyclohexyl-2-thiophen-2-yl-1H-benzoimidazole-5-carboxylic acid] | > 500 |
| O=C(O)c1ccc2c(c1)nc(-c1ccccc1)n2C1CCCCC1 [1-cyclohexyl-2-phenyl-1H-benzo[d]imidazole-5-carboxylic acid] | > 500 |

The remaining lines, values ahead:

| IC50 [µM] | Structure (SMILES) |
| --- | --- |
| > 500 | O=C(O)c1ccc2c(c1)nc(-c1ccco1)n2C1CCCCC1 [1-Cyclohexyl-2-furan-2-yl-1H-benzoimidazole-5-carboxylic acid] |
| > 500 | O=C(O)c1ccc2c(c1)nc(-c1ccsc1)n2C1CCCCC1 [1-Cyclohexyl-2-thiophen-3-yl-1H-benzoimidazole-5-carboxylic acid] |
